Tests used:
Assay in all cases: relative viability (nuclei count vs DMSO), 5 days (fraction); higher = more cells survive
201T = test system: 201T
Procedure, shortened: (§1)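 Lung cancer cell lines were seeded in 1536-well plates and dosed by pin tool the next day, with either a single drug or a fixed anchor-drug dose combined with five library-drug doses (not always all listed) spaced in √10 steps. Five days later, one step fixed the cells and stained their nuclei (final 0.05% Triton X-100, 1% formaldehyde, 1 ug/ml Hoechst), and nuclei were counted on 4× images. Relative viability is the nuclei count in treated wells divided by the count in vehicle wells, and each value is the median of duplicate plates.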

A-427 = test system: A-427
Procedure, shortened: as §1

BEN = test system: BEN
Procedure, shortened: as §1

COR-L 105 = test system: COR-L 105
Procedure, shortened: as §1

COR-L23 = test system: COR-L23
Procedure, shortened: as §1

EKVX = test system: EKVX
Procedure, shortened: as §1

HARA = test system: HARA
Procedure, shortened: as §1

HCC-15 = test system: HCC-15
Procedure, shortened: as §1

HCC-44 = test system: HCC-44
Procedure, shortened: as §1

HCC-827 = test system: HCC-827
Procedure, shortened: as §1

LK-2 = test system: LK-2
Procedure, shortened: as §1

NCI-H1437 = test system: NCI-H1437
Procedure, shortened: as §1

NCI-H1666 = test system: NCI-H1666
Procedure, shortened: as §1

NCI-H1792 = test system: NCI-H1792
Procedure, shortened: as §1

NCI-H1975 = test system: NCI-H1975
Procedure, shortened: as §1

NCI-H23 = test system: NCI-H23
Procedure, shortened: as §1

NCI-H358 = test system: NCI-H358
Procedure, shortened: as §1

NCI-H441 = test system: NCI-H441
Procedure, shortened: as §1

NCI-H596 = test system: NCI-H596
Procedure, shortened: as §1

NCI-H650 = test system: NCI-H650
Procedure, shortened: as §1

NCI-H838 = test system: NCI-H838
Procedure, shortened: as §1

SK-MES-1 = test system: SK-MES-1
Procedure, shortened: as §1

Structure (SMILES): Oc1nc(-c2ccc(C(F)(F)F)cc2)nc2c1CSCC2 [XAV939] + C[C@]1(O)C[C@@H](c2nc(-c3ccc4ccc(-c5ccccc5)nc4c3)c3c(N)nccn32)C1 [Linsitinib] (partner 1 µM)
- relative viability (201T; first compound 0.08 µM): 0.937
- relative viability (201T; first compound 0.253 µM): 0.8
- relative viability (201T; first compound 0.8 µM): 0.857
- relative viability (201T; first compound 2.53 µM): 0.873
- relative viability (A-427; first compound 0.08 µM): 1.02
- relative viability (A-427; first compound 0.253 µM): 1.12
- relative viability (A-427; first compound 0.8 µM): 1.08
- relative viability (A-427; first compound 2.53 µM): 1.08
- relative viability (BEN; first compound 0.08 µM): 1.17
- relative viability (BEN; first compound 0.253 µM): 0.894
- relative viability (BEN; first compound 0.8 µM): 0.934
- relative viability (COR-L 105; first compound 0.08 µM): 1
- relative viability (COR-L 105; first compound 0.253 µM): 0.98
- relative viability (COR-L 105; first compound 0.8 µM): 0.868
- relative viability (COR-L 105; first compound 2.53 µM): 0.561
- relative viability (COR-L23; first compound 0.08 µM): 0.962
- relative viability (COR-L23; first compound 0.253 µM): 0.785
- relative viability (COR-L23; first compound 0.8 µM): 0.969
- relative viability (COR-L23; first compound 2.53 µM): 0.809
- relative viability (EKVX; first compound 0.08 µM): 1.07
- relative viability (EKVX; first compound 0.253 µM): 0.776
- relative viability (EKVX; first compound 0.8 µM): 0.831
- relative viability (EKVX; first compound 2.53 µM): 0.623
- relative viability (HARA; first compound 0.08 µM): 1.25
- relative viability (HARA; first compound 0.253 µM): 0.414
- relative viability (HARA; first compound 0.8 µM): 0.779
- relative viability (HARA; first compound 2.53 µM): 0.956
- relative viability (HCC-15; first compound 0.08 µM): 0.923
- relative viability (HCC-15; first compound 0.253 µM): 0.851
- relative viability (HCC-15; first compound 0.8 µM): 0.859
- relative viability (HCC-15; first compound 2.53 µM): 0.848
- relative viability (HCC-44; first compound 0.08 µM): 0.789
- relative viability (HCC-44; first compound 0.253 µM): 0.673
- relative viability (HCC-44; first compound 0.8 µM): 0.659
- relative viability (HCC-44; first compound 2.53 µM): 0.651
- relative viability (HCC-827; first compound 0.08 µM): 0.995
- relative viability (HCC-827; first compound 0.253 µM): 0.91
- relative viability (HCC-827; first compound 0.8 µM): 0.952
- relative viability (HCC-827; first compound 2.53 µM): 0.942
- relative viability (LK-2; first compound 0.08 µM): 0.514
- relative viability (LK-2; first compound 0.253 µM): 0.499
- relative viability (LK-2; first compound 0.8 µM): 0.42
- relative viability (LK-2; first compound 2.53 µM): 0.457
- relative viability (NCI-H1437; first compound 0.08 µM): 1.21
- relative viability (NCI-H1437; first compound 0.253 µM): 0.878
- relative viability (NCI-H1437; first compound 0.8 µM): 0.873
- relative viability (NCI-H1437; first compound 2.53 µM): 0.477
- relative viability (NCI-H1666; first compound 0.08 µM): 0.816
- relative viability (NCI-H1666; first compound 0.253 µM): 0.598
- relative viability (NCI-H1666; first compound 0.8 µM): 0.712
- relative viability (NCI-H1666; first compound 2.53 µM): 0.568
- relative viability (NCI-H1792; first compound 0.08 µM): 0.672
- relative viability (NCI-H1792; first compound 0.253 µM): 0.537
- relative viability (NCI-H1792; first compound 0.8 µM): 0.557
- relative viability (NCI-H1792; first compound 2.53 µM): 0.453
- relative viability (NCI-H1975; first compound 0.08 µM): 0.854
- relative viability (NCI-H1975; first compound 0.253 µM): 0.711
- relative viability (NCI-H1975; first compound 0.8 µM): 0.97
- relative viability (NCI-H1975; first compound 2.53 µM): 0.673
- relative viability (NCI-H23; first compound 0.08 µM): 0.612
- relative viability (NCI-H23; first compound 0.253 µM): 0.559
- relative viability (NCI-H23; first compound 0.8 µM): 0.647
- relative viability (NCI-H23; first compound 2.53 µM): 0.433
- relative viability (NCI-H358; first compound 0.08 µM): 0.832
- relative viability (NCI-H358; first compound 0.253 µM): 0.551
- relative viability (NCI-H358; first compound 0.8 µM): 0.655
- relative viability (NCI-H358; first compound 2.53 µM): 0.558
- relative viability (NCI-H441; first compound 0.08 µM): 0.675
- relative viability (NCI-H441; first compound 0.253 µM): 0.413
- relative viability (NCI-H441; first compound 0.8 µM): 0.507
- relative viability (NCI-H441; first compound 2.53 µM): 0.507
- relative viability (NCI-H596; first compound 0.08 µM): 1.09
- relative viability (NCI-H596; first compound 0.253 µM): 1.02
- relative viability (NCI-H596; first compound 0.8 µM): 1.03
- relative viability (NCI-H596; first compound 2.53 µM): 0.924
- relative viability (NCI-H650; first compound 0.08 µM): 1.13
- relative viability (NCI-H650; first compound 0.253 µM): 1.07
- relative viability (NCI-H650; first compound 0.8 µM): 0.911
- relative viability (NCI-H650; first compound 2.53 µM): 0.857
- relative viability (NCI-H838; first compound 0.08 µM): 1.02
- relative viability (NCI-H838; first compound 0.253 µM): 0.901
- relative viability (NCI-H838; first compound 0.8 µM): 0.839
- relative viability (NCI-H838; first compound 2.53 µM): 0.719
- relative viability (SK-MES-1; first compound 0.08 µM): 1.1
- relative viability (SK-MES-1; first compound 0.253 µM): 0.896
- relative viability (SK-MES-1; first compound 0.8 µM): 1.03
- relative viability (SK-MES-1; first compound 2.53 µM): 0.965
